# Measurements reported in patent US20120016124A1, “SEROTONIN REUPTAKE INHIBITORS” (Baylor University, priority 2007, published 2012).
# Read-outs that look alike come from different tables or passages of the source.
# Assays:
# [1] = target: serotonin receptor 5-HT2A (Homo sapiens, UniProt P28223); assay: NIH-PDSP binding assay, 5-HT2A (3H-ketanserin); settings: for mean % inhibition 5-HT2A: Table 4, N=4 determinations, significant inhibition >50%, negative = stimulation of binding
# Text: (§1) Biological Evaluation of selected compounds was done through the National Institutes of Health Psychoactive Drug Screening Program (NIH-PDSP). Biological evaluation of the synthesized molecules consisted of: (a) Neurotransmitter uptake assays for the human serotonin transporter (SERT), (b) Binding assays for the serotonin receptor 5-HT1A, (c) Binding assays for the serotonin receptor 5-HT2A, and (d) Comparison of the biological data obtained for the synthesized molecules with that of currently used psychotherapeutics.
# (§2) All binding assays were carried out with an incubation time of 60 minutes at room temperature. All binding assays were performed in a similar manner, although the buffers used differ from assay to assay.
# (§3) Table 2 below gives the (1) radioligand; (2) assay buffer; (3) unlabelled reference ligand; and (4) references to the commonly-known procedures which were used.
# (§4) The assay buffer A was made up of 50 mM Tris-Cl, 0.1 mM EDTA, and 10 mM MgCl2, at a pH of 7.4. To perform the assay, a 96-well plate was set up as follows:
# (§5) For the 3H-ligands 1-2 nM final concentration of radioligand was used. For 125I-radioligands, 0.05-0.1 nM final concentration was used. The following components were pipetted in the following order: binding buffer, radioligand, cold unknown ligand, cold reference ligand, and membranes. The wells were incubated at room temperature for 60 minutes. At the end of the incubation, the samples were harvested onto pre-soaked (0.3% polyethyleneimine) GF/C filters using a 96-well harvester. They were then washed with 3 quick washes using ice-cold harvest buffer. The filters were removed and air dried overnight. Samples were counted in a 96-well counter using 100 μl of scintillant/well. The Ki value of the reference compound was calculated using the LIGAND Program (Munson and Rodbard, 1980). The percent inhibition was calculated using the following formula: […]
# [2] = target: T1, serotonin receptor 5-HT1A (Homo sapiens, UniProt P08908); assay: NIH-PDSP binding assay, 5-HT1A (3H-8-OH-DPAT); settings: for mean % inhibition 5-HT1A: Table 4, N=4 determinations, significant inhibition >50%, negative = stimulation of binding
# T1 sequence (P08908 1-422): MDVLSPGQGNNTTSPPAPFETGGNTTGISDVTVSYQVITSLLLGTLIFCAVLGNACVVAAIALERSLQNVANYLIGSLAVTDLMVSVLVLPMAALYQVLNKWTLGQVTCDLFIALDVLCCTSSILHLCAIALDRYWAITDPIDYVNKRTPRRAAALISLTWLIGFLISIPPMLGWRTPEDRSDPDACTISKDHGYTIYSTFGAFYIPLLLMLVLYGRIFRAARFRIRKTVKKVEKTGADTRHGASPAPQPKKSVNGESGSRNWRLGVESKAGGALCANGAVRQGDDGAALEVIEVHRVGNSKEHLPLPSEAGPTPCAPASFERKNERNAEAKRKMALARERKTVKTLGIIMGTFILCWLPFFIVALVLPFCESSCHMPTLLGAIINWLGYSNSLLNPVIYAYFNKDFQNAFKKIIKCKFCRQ
# Text: as §1, §2, §3, §4, §5
# [3] = target: human serotonin transporter (SERT) (Homo sapiens, UniProt P31645); assay: NIH-PDSP transporter binding assay, SERT (3H-Citalopram); settings: for mean % inhibition SERT: Table 4, N=4 determinations, significant inhibition >50%, negative = stimulation of binding; for affinity for SERT: in words, compounds 1b through 7b of Tables 4 and 5
# Text: as §1, §2
# The assay buffer H contained 50 mM Tris-HCl, […], and 5 mM KCl, at a pH of 7.4. For the peptide receptor binding assay, filters were pre-soaked for 7 days in 0.3% PEI. To perform the assay, a 96-well plate was set up as follows:
# as §5
# 5HT1A, 5HT2A, SERT = assay: Preliminary Analysis of Biological Data (NIH-PDSP binding profile); settings: in words; compounds 1b through 7b of Tables 4 and 5
# Text: as §1
# Ten (10) of the sixteen (16) compounds synthesized were biologically evaluated. Compounds 10b, 11b and 12b were previously evaluated for their serotonin uptake ability as described in Example 5. For screening purposes, compounds 1b through 7b were analyzed for their affinity towards the serotonin 5-HT1A receptor as well as their affinity towards the 5-HT2A receptor and the SERT. Data in […] represent mean % inhibition (N=4 determinations) for compound tested at receptor subtypes. Significant inhibition is considered >50%. In cases where negative inhibition (−) is seen, this represents a stimulation of binding. Occasionally, compounds at high concentrations will non-specifically increase binding. Ki values were determined only for compounds with % inhibition>50%.
# SERT = SERT (Homo sapiens, UniProt P31645); settings: reference compounds, Orjales, cited from earlier work
# 5-HT2A = 5-HT2A (Homo sapiens, UniProt P28223); settings: cited from earlier work
# [4] = Table 8, Homologues Type II (Aminopropane Derivatives), — = No significant inhibition
# [5] = Table 8, Homologues Type II (Aminopropane Derivatives)
# [6] = Table 5, determined only for % inhibition >50%
# [7] = Table 7, Homologues Type I (Aminoethane Derivatives), — = No significant inhibition
# [8] = Table 7, Homologues Type I (Aminoethane Derivatives)
# serotonin receptor 5-HT2A, sequence (P28223 whole entry): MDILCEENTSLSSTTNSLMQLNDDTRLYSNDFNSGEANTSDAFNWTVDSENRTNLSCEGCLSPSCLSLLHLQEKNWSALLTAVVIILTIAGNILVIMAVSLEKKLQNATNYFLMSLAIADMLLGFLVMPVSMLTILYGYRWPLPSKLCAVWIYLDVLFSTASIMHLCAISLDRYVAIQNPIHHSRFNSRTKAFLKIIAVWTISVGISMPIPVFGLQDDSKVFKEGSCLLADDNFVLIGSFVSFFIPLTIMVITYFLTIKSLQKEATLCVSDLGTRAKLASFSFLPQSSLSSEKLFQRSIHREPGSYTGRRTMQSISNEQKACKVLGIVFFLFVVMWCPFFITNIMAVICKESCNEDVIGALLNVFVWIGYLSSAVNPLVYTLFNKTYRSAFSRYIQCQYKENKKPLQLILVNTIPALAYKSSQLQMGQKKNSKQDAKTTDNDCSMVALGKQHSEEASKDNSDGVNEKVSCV
# human serotonin transporter (SERT), sequence (P31645 whole entry): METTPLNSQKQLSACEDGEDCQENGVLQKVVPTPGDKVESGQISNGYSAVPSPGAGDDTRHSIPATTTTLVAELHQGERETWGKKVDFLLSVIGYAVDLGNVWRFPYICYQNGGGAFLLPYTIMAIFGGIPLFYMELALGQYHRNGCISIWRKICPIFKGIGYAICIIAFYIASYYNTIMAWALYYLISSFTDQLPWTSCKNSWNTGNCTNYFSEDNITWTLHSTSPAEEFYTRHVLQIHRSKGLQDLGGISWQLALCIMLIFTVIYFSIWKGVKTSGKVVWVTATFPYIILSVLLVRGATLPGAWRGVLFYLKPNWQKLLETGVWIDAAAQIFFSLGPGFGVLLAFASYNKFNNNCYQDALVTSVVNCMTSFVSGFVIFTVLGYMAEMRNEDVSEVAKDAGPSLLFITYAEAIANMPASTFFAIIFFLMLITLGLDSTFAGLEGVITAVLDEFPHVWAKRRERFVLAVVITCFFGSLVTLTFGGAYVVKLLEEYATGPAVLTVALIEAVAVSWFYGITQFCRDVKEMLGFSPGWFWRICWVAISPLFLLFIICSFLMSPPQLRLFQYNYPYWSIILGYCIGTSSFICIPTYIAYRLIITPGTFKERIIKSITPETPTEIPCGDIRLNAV
# SERT, sequence (P31645 whole entry, species assumed): as the sequence (P31645 whole entry) above
# 5-HT2A, sequence (P28223 whole entry, species assumed): as the sequence (P28223 whole entry) above
SMILES,"Ki [1, 4] [nM]","Ki [2, 5] [nM]","Ki [3, 5] [nM]",further results
"FC(F)(F)c1ccc(OC(CCN2CCN(c3ccccc3)CC2)c2ccccc2)cc1 (single isomer, unassigned) [Compound 17b]",605,315,761,
Fc1ccc(OC(CN2CCN(c3ccccc3)CC2)c2ccccc2)cc1 (stereo not shown) [Compound 1],,,,"melting point: 80 to 82 °C; mean % inhibition 5-HT2A [1]: 61.0%; Ki [1, 6]: 3490 nM; mean % inhibition 5-HT1A [2]: 98.0%; Ki [2, 6]: 258 nM; mean % inhibition SERT [3]: 12.0%"
Fc1ccc(OC(CN2CCN(c3ccccc3)CC2)c2ccccc2)cc1 (stereo not shown) [Compound 1b],,,,"dual activity towards the 5-HT2A receptor and the SERT (5HT1A, 5HT2A, SERT): desired dual activity towards the 5-HT2A receptor and the SERT, although low; Ki [1, 7]: 1120 nM; Ki [2, 7]: 99 nM; Ki [3, 8]: > 10000 nM; affinity for SERT [3]: low affinity"
FC(F)(F)c1ccc(OC(CCN2CCN(c3ccccc3)CC2)c2ccccc2)cc1 (stereo not shown) [Compound 2b],,,,"dual activity towards the 5-HT2A receptor and the SERT (5HT1A, 5HT2A, SERT): desired dual activity towards the 5-HT2A receptor and the SERT, although low; mean % inhibition 5-HT2A [1]: 81.0%; Ki [1, 6]: 195 nM; mean % inhibition 5-HT1A [2]: 91.0%; Ki [2, 6]: 716 nM; mean % inhibition SERT [3]: 67.0%; Ki [3, 6]: 1870 nM; affinity for SERT [3]: low affinity"
FC(F)(F)c1ccc(OC(CN2CCN(c3ccccc3)CC2)c2ccccc2)cc1 (stereo not shown) [Compound 2b],,,,"Ki [2, 7]: 392 nM; Ki [3, 8]: > 10000 nM"
FC(F)(F)c1ccc(OC(CN2CCN(c3cccc(Cl)c3)CC2)c2ccccc2)cc1 (stereo not shown) [Compound 3],,,,"mean % inhibition 5-HT2A [1]: 17.0%; mean % inhibition 5-HT1A [2]: 71.0%; Ki [2, 6]: 712 nM; mean % inhibition SERT [3]: 22.0%"
FC(F)(F)c1ccc(OC(CN2CCN(c3cccc(Cl)c3)CC2)c2ccccc2)cc1 (stereo not shown) [Compound 3b],,,,"Ki [2, 7]: 649 nM; Ki [3, 8]: 4930 nM"
FC(F)(F)c1ccc(OC(CN2CCN(c3cccc(C(F)(F)F)c3)CC2)c2ccccc2)cc1 (stereo not shown) [Compound 4b],,,,"Ki [2, 7]: 1460 nM; Ki [3, 8]: 4510 nM"
COc1ccccc1N1CCN(CC(Oc2ccc(C(F)(F)F)cc2)c2ccccc2)CC1 (stereo not shown) [Compound 5b],,,,"Ki [1, 7]: > 10000 nM; Ki [2, 7]: 22 nM; Ki [3, 8]: ≥ 10000 nM"
CCCN(CCC)C1CCc2cccc(O)c2C1 (stereo not shown) [Compound 8-OH-DPAT],,,,"Ki (SERT; Table 5, et al. 2003): > 1000 nM; Ki (SERT; Table 7, et. al., 2003): > 1000 nM; Ki (SERT; Table 8, et. al., 2003): > 1000 nM; Ki (5-HT2A): > 1000 nM"
CN1CCN(CC(Oc2ccc(C(F)(F)F)cc2)c2ccccc2)CC1 (stereo not shown) [Compound 9b],,,,"Ki [1, 7]: 405 nM; Ki [3, 8]: 3660 nM"
Fc1ccc2c(C3CCN(CC(Oc4ccc(C(F)(F)F)cc4)c4ccccc4)CC3)noc2c1 (stereo not shown) [Compound 13b],,,,"Ki [1, 7]: > 10000 nM; Ki [2, 7]: 1970 nM; Ki [3, 8]: 1650 nM"
O=C(CCCN1CCN(CC(Oc2ccc(F)cc2)c2ccccc2)CC1)c1ccc(F)cc1 (stereo not shown) [Compound 14b],,,,"Ki [1, 7]: ≥ 10000 nM; Ki [2, 7]: 1180 nM; Ki [3, 8]: 1120 nM"
O=C(CCCN1CCN(CC(Oc2ccc(C(F)(F)F)cc2)c2ccccc2)CC1)c1ccc(F)cc1 (stereo not shown) [Compound 15b],,,,"Ki [1, 7]: 157 nM; Ki [2, 7]: 2730 nM; Ki [3, 8]: 1380 nM"
Fc1ccc(OC(CCN2CCN(c3ccccc3)CC2)c2ccccc2)cc1 (stereo not shown) [Compound 16b],76,9,1130,mean % inhibition 5-HT2A [1]: 96.0%; mean % inhibition 5-HT1A [2]: 100.0%; mean % inhibition SERT [3]: 62.0%
Fc1ccc(OC(CCN2CCN(c3cccc(Cl)c3)CC2)c2ccccc2)cc1 (stereo not shown) [Compound 18b],94,11,289,

SMILES,"Ki [1, 4] [nM]","Ki [2, 5] [nM]","Ki [3, 5] [nM]",further results
FC(F)(F)c1ccc(OC(CCN2CCN(c3cccc(Cl)c3)CC2)c2ccccc2)cc1 (stereo not shown) [Compound 19b],1340,311,357,
Fc1ccc(OC(CCN2CCN(c3cccc(C(F)(F)F)c3)CC2)c2ccccc2)cc1 (stereo not shown) [Compound 20b],747,20,330,
FC(F)(F)c1ccc(OC(CCN2CCN(c3cccc(C(F)(F)F)c3)CC2)c2ccccc2)cc1 (stereo not shown) [Compound 21b],,193,1330,
COc1ccccc1N1CCN(CCC(Oc2ccc(F)cc2)c2ccccc2)CC1 (stereo not shown) [Compound 22b],761,4,2440,
COc1ccccc1N1CCN(CCC(Oc2ccc(C(F)(F)F)cc2)c2ccccc2)CC1 (stereo not shown) [Compound 23b],1420,42.1,2200,
Fc1ccc(OC(CCN2CCN(c3ncccn3)CC2)c2ccccc2)cc1 (stereo not shown) [Compound 24b],853,803,≥ 10000,
FC(F)(F)c1ccc(OC(CCN2CCN(c3ncccn3)CC2)c2ccccc2)cc1 (stereo not shown) [Compound 25b],1790,434,6820,
CN1CCN(CCC(Oc2ccc(F)cc2)c2ccccc2)CC1 (stereo not shown) [Compound 26b],1330,> 10000,2900,
CN1CCN(CCC(Oc2ccc(C(F)(F)F)cc2)c2ccccc2)CC1 (stereo not shown) [Compound 27b],1740,9560,7010,
O=C(c1ccc(F)cc1)C1CCN(CCC(Oc2ccc(F)cc2)c2ccccc2)CC1 (stereo not shown) [Compound 28b],69.6,234,6480,
O=C(c1ccc(F)cc1)C1CCN(CCC(Oc2ccc(C(F)(F)F)cc2)c2ccccc2)CC1 (stereo not shown) [Compound 29b],73.7,304,1240,
Fc1ccc(OC(CCN2CCC(c3noc4cc(F)ccc34)CC2)c2ccccc2)cc1 (stereo not shown) [Compound 30b],398,8.6,1690,
Fc1ccc2c(C3CCN(CCC(Oc4ccc(C(F)(F)F)cc4)c4ccccc4)CC3)noc2c1 (stereo not shown) [Compound 31b],23.2,420,718,
O=C(CCCN1CCN(CCC(Oc2ccc(F)cc2)c2ccccc2)CC1)c1ccc(F)cc1 (stereo not shown) [Compound 32b],420,2640,1350,
O=C(CCCN1CCN(CCC(Oc2ccc(C(F)(F)F)cc2)c2ccccc2)CC1)c1ccc(F)cc1 (stereo not shown) [Compound 33b],406,5010,725,
